Source: patent publication US8741836B2, “Polypeptides” (Novo Nordisk A/S, priority 2011, dated 2014)
Starred links: 1 amine or outer side, 2 acyl side, 3 side chain; linkers in the order of their positions; H or OH if unused. Positions of bridges follow the written chain, without caps; N, C: chain ends. Residues, ends and D or L forms follow the SMILES beside them. *: point of attachment. C20 diacid = O=C(O)CCCCCCCCCCCCCCCCCCC(=O)*; C18 diacid = O=C(O)CCCCCCCCCCCCCCCCC(=O)*; γGlu = O=C(O)[C@H](CCC(=O)[*:2])N[*:1]

Tested on: ad libitum fed rat
Test: Assay (I) efficacy testing on appetite (food intake) using an ad libitum fed rat model
Assay type: in vivo, Sprague Dawley (SD) rats
From the text: In the following examples reference is made to the following Assays: • Assay (I)—Experimental protocol for efficacy testing on appetite using an ad libitum fed rat model • ASSAY (II)a—Functional assay—Human calcitonin and amylin receptor assay • ASSAY (II)b—Functional assay—Rat calcitonin and rat amylin receptor assays • ASSAY (III)—ThT fibrillation assays for the assessment of physical stability of protein formulations • ASSAY (IV)—Determination of solubility • ASSAY (V)—Determination of binding to the human amylin receptor • ASSAY (VI)—Determination of the binding to the rat amylin receptor • ASSAY (VII)—Determination of binding to the human calcitonin receptor • ASSAY (VIII)—Determination of binding to the rat calcitonin receptor • ASSAY (IX)—pK—Determination of T½ in mini-pig • ASSAY (X)—pK—Determination of T½ in rat Assay (I)—Experimental protocol for Efficacy Testing on Appetite Using an Ad Libitum Fed Rat Model
Sprague Dawley (SD) rats from Taconic Europe, Denmark are used for the experiments. The rats have a body weight 200-250 g at the start of experiment. The rats arrive at least 10-14 days before start of experiment to allow acclimatization to experimental settings. During this period the animals are handled at least 2 times. After arrival rats are housed individually for one week in a reversed light/dark phase (meaning that lights are off during daytime and on during nighttime) […]. Since rats are normally active and eat their major part of their daily food intake during the dark period, rats are dosed in the morning right before lights are turned off. This set-up results in the lowest data variation and highest test sensitivity. The experiment is conducted in the rats' home cages and rats have free access to food and water throughout the acclimatization period and the experiment period. Each dose of derivative is tested in a group of 5-8 rats. A vehicle group of 6-8 rats is included in each set of testing. Rats are dosed once according to body weight with a 0.01-3 mg/kg solution administered intraperitoneally (ip), orally (po) or subcutaneously (sc). The time of dosing is recorded for each group. After dosing, the rats are returned to their home cages, where they then have access to food and water. The food consumption is recorded individually continuously by on-line registration or manually every hour for 7 hours, and then after 24 h and sometimes 48 h. At the end of the experimental session, the animals are euthanised.
The individual data are recorded in Microsoft excel sheets. Outliers are excluded after applying the Grubbs statistical evaluation test for outliers, and the result is presented graphically using the GraphPad Prism program.

SMILES: CC[C@H](C)[C@H](NC(=O)[C@H](CCC(=O)O)NC(=O)CNC(=O)[C@H](Cc1ccccc1)NC(=O)[C@H](CC(N)=O)NC(=O)[C@H](CC(N)=O)NC(=O)[C@H](CO)NC(=O)[C@H](CO)NC(=O)[C@H](CCCNC(=N)N)NC(=O)[C@H](Cc1c[nH]cn1)NC(=O)[C@H](CC(C)C)NC(=O)[C@H](Cc1ccccc1)NC(=O)[C@H](CCC(=O)O)NC(=O)[C@H](C)NC(=O)[C@H](CC(C)C)NC(=O)[C@H](CCCNC(=N)N)NC(=O)[C@H](CCC(N)=O)NC(=O)[C@@H](NC(=O)[C@H](C)NC(=O)[C@@H]1CSSC[C@H](NC(=O)[C@H](Cc2c[nH]cn2)NC(=O)CC[C@H](NC(=O)CCCCCCCCCCCCCCCCCCC(=O)O)C(=O)O)C(=O)N[C@@H](CC(N)=O)C(=O)N[C@@H]([C@@H](C)O)C(=O)N[C@@H](C)C(=O)N[C@@H]([C@@H](C)O)C(=O)N1)[C@@H](C)O)C(=O)N[C@@H](CC(C)C)C(=O)N[C@@H](CO)C(=O)N[C@@H](CCCNC(=N)N)C(=O)N[C@H](C(=O)N[C@@H](CC(N)=O)C(=O)N[C@H](C(=O)NCC(=O)N[C@@H](CO)C(=O)N[C@@H](CC(N)=O)C(=O)N[C@H](C(=O)N[C@@H](Cc1ccc(O)cc1)C(N)=O)[C@@H](C)O)C(C)C)[C@@H](C)O [Example 7, N-alpha-[(S)-4-Carboxy-4-(19-carboxynonadecanoylamino)butyryl]-[His1,Glu14,His17,Arg18,Glu25,Ser28,Arg29]-pramlintide] ({C20 diacid-γGlu}-HCNTATCATQRLAEFLHRSSNNFGEILSRTNVGSNTY-NH2; disulfide 2-7 (inferred))
- Food intake reduction 0-24 h 3 nmol/kg (%) (0-24 h): 53%
- Food intake reduction 24-48 h 3 nmol/kg (%) (24-48 h): 46%

SMILES: CC[C@H](C)[C@H](NC(=O)[C@@H]1CCCN1C(=O)CNC(=O)[C@H](Cc1ccccc1)NC(=O)[C@H](CC(N)=O)NC(=O)[C@H](CC(N)=O)NC(=O)[C@H](CO)NC(=O)[C@H](CO)NC(=O)[C@H](Cc1c[nH]cn1)NC(=O)[C@H](Cc1c[nH]cn1)NC(=O)[C@H](CC(C)C)NC(=O)[C@H](Cc1ccccc1)NC(=O)[C@H](CCC(=O)O)NC(=O)[C@H](C)NC(=O)[C@H](CC(C)C)NC(=O)[C@H](CCCNC(=N)N)NC(=O)[C@H](CCC(N)=O)NC(=O)[C@@H](NC(=O)[C@H](C)NC(=O)[C@@H]1CSSC[C@H](NC(=O)[C@H](CCCCN)NC(=O)CC[C@H](NC(=O)CCCCCCCCCCCCCCCCC(=O)O)C(=O)O)C(=O)N[C@@H](CC(N)=O)C(=O)N[C@@H]([C@@H](C)O)C(=O)N[C@@H](C)C(=O)N[C@@H]([C@@H](C)O)C(=O)N1)[C@@H](C)O)C(=O)N[C@@H](CC(C)C)C(=O)N1CCC[C@H]1C(=O)N1CCC[C@H]1C(=O)N[C@H](C(=O)N[C@@H](CC(N)=O)C(=O)N[C@H](C(=O)NCC(=O)N[C@@H](CO)C(=O)N[C@@H](CC(N)=O)C(=O)N[C@H](C(=O)N[C@@H](Cc1ccc(O)cc1)C(N)=O)[C@@H](C)O)C(C)C)[C@@H](C)O [Example 46, N-alpha-[(S)-4-Carboxy-4-(17-carboxyheptadecanoylamino)butyryl]-[Glu14,His17]-pramlintide] ({C18 diacid-γGlu}-KCNTATCATQRLAEFLHHSSNNFGPILPPTNVGSNTY-NH2; disulfide 2-7 (inferred); C-terminus assumed)
- Food intake reduction 0-24 h 3 nmol/kg (%) (0-24 h): 54%
- Food intake reduction 24-48 h 3 nmol/kg (%) (24-48 h): 27%

SMILES: CC[C@H](C)[C@H](NC(=O)[C@@H]1CCCN1C(=O)CNC(=O)[C@H](Cc1ccccc1)NC(=O)[C@H](CC(N)=O)NC(=O)[C@H](CC(N)=O)NC(=O)[C@H](CO)NC(=O)[C@H](CO)NC(=O)[C@H](CCCNC(=N)N)NC(=O)[C@H](Cc1c[nH]cn1)NC(=O)[C@H](CC(C)C)NC(=O)[C@H](Cc1ccccc1)NC(=O)[C@H](CCC(=O)O)NC(=O)[C@H](C)NC(=O)[C@H](CC(C)C)NC(=O)[C@H](CCCNC(=N)N)NC(=O)[C@H](CCC(N)=O)NC(=O)[C@@H](NC(=O)[C@H](C)NC(=O)[C@@H]1CSSC[C@H](NC(=O)[C@H](Cc2c[nH]cn2)NC(=O)CC[C@H](NC(=O)CCCCCCCCCCCCCCCCCCC(=O)O)C(=O)O)C(=O)N[C@@H](CC(N)=O)C(=O)N[C@@H]([C@@H](C)O)C(=O)N[C@@H](C)C(=O)N[C@@H]([C@@H](C)O)C(=O)N1)[C@@H](C)O)C(=O)N[C@@H](CC(C)C)C(=O)N1CCC[C@H]1C(=O)N1CCC[C@H]1C(=O)N[C@H](C(=O)N[C@@H](CC(N)=O)C(=O)N[C@H](C(=O)NCC(=O)N[C@@H](CO)C(=O)N[C@@H](CC(N)=O)C(=O)N[C@H](C(=O)N[C@@H](Cc1ccc(O)cc1)C(N)=O)[C@@H](C)O)C(C)C)[C@@H](C)O [Example 1, N-alpha-[(S)-4-Carboxy-4-(19-carboxynonadecanoylamino)butyryl]-[His1,Glu14,His17,Arg18]-pramlintide] ({C20 diacid-γGlu}-HCNTATCATQRLAEFLHRSSNNFGPILPPTNVGSNTY-NH2; disulfide 2-7 (inferred); C-terminus assumed)
- Food intake reduction 0-24 h 3 nmol/kg (%) (0-24 h): 50%
- Food intake reduction 24-48 h 3 nmol/kg (%) (24-48 h): 45%
- Food intake reduction 0-24 h 30 nmol/kg (%) (30 nmol/kg, 0-24 h): 93%
- Food intake reduction 24-48 h 30 nmol/kg (%) (30 nmol/kg, 24-48 h): 92%

SMILES: CC[C@H](C)[C@H](NC(=O)[C@@H]1CCCN1C(=O)CNC(=O)[C@H](Cc1ccccc1)NC(=O)[C@H](CC(N)=O)NC(=O)[C@H](CC(N)=O)NC(=O)[C@H](CO)NC(=O)[C@H](CO)NC(=O)[C@H](Cc1c[nH]cn1)NC(=O)[C@H](Cc1c[nH]cn1)NC(=O)[C@H](CC(C)C)NC(=O)[C@H](Cc1ccccc1)NC(=O)[C@H](CCC(=O)O)NC(=O)[C@H](C)NC(=O)[C@H](CC(C)C)NC(=O)[C@H](CCCNC(=N)N)NC(=O)[C@H](CCC(N)=O)NC(=O)[C@@H](NC(=O)[C@H](C)NC(=O)[C@@H]1CSSC[C@H](NC(=O)[C@H](Cc2c[nH]cn2)NC(=O)[C@H](Cc2c[nH]cn2)NC(=O)[C@H](Cc2c[nH]cn2)NC(=O)CC[C@H](NC(=O)CCCCCCCCCCCCCCCCCCC(=O)O)C(=O)O)C(=O)N[C@@H](CCCNC(=N)N)C(=O)N[C@@H]([C@@H](C)O)C(=O)N[C@@H](C)C(=O)N[C@@H]([C@@H](C)O)C(=O)N1)[C@@H](C)O)C(=O)N[C@@H](CC(C)C)C(=O)N1CCC[C@H]1C(=O)N1CCC[C@H]1C(=O)N[C@H](C(=O)N[C@@H](CC(N)=O)C(=O)N[C@H](C(=O)NCC(=O)N[C@@H](CO)C(=O)N[C@@H](CC(N)=O)C(=O)N[C@H](C(=O)N[C@@H](Cc1ccc(O)cc1)C(N)=O)[C@@H](C)O)C(C)C)[C@@H](C)O [Example 22, N-alpha-[(S)-4-Carboxy-4-(19-carboxynonadecanoylamino)butyryl]-His-His-[His1,Arg3,Glu14,His17]-pramlintide] ({C20 diacid-γGlu}-HHHCRTATCATQRLAEFLHHSSNNFGPILPPTNVGSNTY-NH2; disulfide 4-9 (inferred))
- Food intake reduction 0-24 h 3 nmol/kg (%) (0-24 h): 26%
- Food intake reduction 24-48 h 3 nmol/kg (%) (24-48 h): 5%

SMILES: CC[C@H](C)[C@H](NC(=O)[C@@H]1CCCN1C(=O)CNC(=O)[C@H](Cc1ccccc1)NC(=O)[C@H](CC(N)=O)NC(=O)[C@H](CC(N)=O)NC(=O)[C@H](CO)NC(=O)[C@H](CO)NC(=O)[C@H](Cc1c[nH]cn1)NC(=O)[C@H](Cc1c[nH]cn1)NC(=O)[C@H](CC(C)C)NC(=O)[C@H](Cc1ccccc1)NC(=O)[C@H](CCC(=O)O)NC(=O)[C@H](C)NC(=O)[C@H](CC(C)C)NC(=O)[C@H](CCCNC(=N)N)NC(=O)[C@H](CCC(N)=O)NC(=O)[C@@H](NC(=O)[C@H](C)NC(=O)[C@@H]1CSSC[C@H](NC(=O)[C@H](CCCCN)NC(=O)[C@H](CCC(=O)O)NC(=O)CC[C@H](NC(=O)CCCCCCCCCCCCCCCCCCC(=O)O)C(=O)O)C(=O)N[C@@H](CC(N)=O)C(=O)N[C@@H]([C@@H](C)O)C(=O)N[C@@H](C)C(=O)N[C@@H]([C@@H](C)O)C(=O)N1)[C@@H](C)O)C(=O)N[C@@H](CC(C)C)C(=O)N1CCC[C@H]1C(=O)N1CCC[C@H]1C(=O)N[C@H](C(=O)N[C@@H](CC(N)=O)C(=O)N[C@H](C(=O)NCC(=O)N[C@@H](CO)C(=O)N[C@@H](CC(N)=O)C(=O)N[C@H](C(=O)N[C@@H](Cc1ccc(O)cc1)C(N)=O)[C@@H](C)O)C(C)C)[C@@H](C)O [Example 26, N-alpha-[(S)-4-Carboxy-4-(19-carboxynonadecanoylamino)butyryl]-Glu-[Glu14,His17]-pramlintide] ({C20 diacid-γGlu}-EKCNTATCATQRLAEFLHHSSNNFGPILPPTNVGSNTY-NH2; disulfide 3-8 (inferred))
- Food intake reduction 0-24 h 3 nmol/kg (%) (0-24 h): 46%
- Food intake reduction 24-48 h 3 nmol/kg (%) (24-48 h): 39%
